Assay results from the supplement of paper PMC10307832.

Key:
Experiment in all cases: relative viability (nuclei count vs DMSO), 5 days (fraction); higher = more cells survive
[1] = compound: C=CC(=O)N1CCC[C@@H](n2nc(-c3ccc(Oc4ccccc4)cc3)c3c(N)ncnc32)C1 [Ibrutinib] + CC(=O)Nc1cccc(-n2c(=O)n(C3CC3)c(=O)c3c(Nc4ccc(I)cc4F)n(C)c(=O)c(C)c32)c1 [Trametinib] (partner 0.02 µM)
How it was run: (§1)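 Nuclei were stained with Hoechst during a one-step fixation (final 0.05% Triton X-100, 1% formaldehyde, 1 ug/ml Hoechst) carried out 5 days after dosing, then counted on 4× images. The cells, lung cancer lines in 1536-well plates, had been dosed by pin tool the day after seeding with one drug alone or a fixed anchor-drug dose plus five library-drug doses (not always all listed) in √10 steps. Relative viability is the nuclei count in treated wells divided by that in vehicle wells, and each value is the median of duplicate plates.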

[2] = compound: C=CC(=O)N1CCC[C@@H](n2nc(-c3ccc(Oc4ccccc4)cc3)c3c(N)ncnc32)C1 [Ibrutinib] + Cc1nc(NC(=O)N2CCC[C@H]2C(N)=O)sc1-c1ccnc(C(C)(C)C(F)(F)F)c1 [Alpelisib] (partner 2 µM)
How it was run: as §1

[3] = compound: C=CC(=O)Nc1cc(-n2c(=O)ccc3cnc4ccc(-c5ccc(NS(C)(=O)=O)cc5)cc4c32)ccc1C [BMX-IN-1] + Nc1ncn([C@H]2C[C@H](O)[C@@H](CO)O2)c(=O)n1 [Decitabine] (partner 2 µM)
How it was run: as §1

[4] = compound: C=CCc1cccc(/C=N/NC(=O)CN2CCN(Cc3ccccc3)CC2)c1O [PAC-1] + CS(=O)(=O)N1CCN(Cc2cc3nc(-c4cccc5[nH]ncc45)nc(N4CCOCC4)c3s2)CC1 [Pictilisib] (partner 1 µM)
How it was run: as §1

Cell Line	relative viability ([1]; first compound 0.005 µM)	relative viability ([1]; first compound 0.01581 µM)	relative viability ([1]; first compound 0.05 µM)	relative viability ([1]; first compound 0.1581 µM)	relative viability ([1]; first compound 0.5 µM)	relative viability ([2]; first compound 0.005 µM)	relative viability ([2]; first compound 0.01581 µM)	relative viability ([2]; first compound 0.05 µM)	relative viability ([2]; first compound 0.1581 µM)	relative viability ([2]; first compound 0.5 µM)	relative viability ([3]; first compound 0.02 µM)	relative viability ([3]; first compound 0.2 µM)	relative viability ([3]; first compound 0.6325 µM)	relative viability ([3]; first compound 2 µM)	relative viability ([4]; first compound 0.02 µM)	relative viability ([4]; first compound 0.06325 µM)	relative viability ([4]; first compound 0.2 µM)	relative viability ([4]; first compound 2 µM)
PC-3 [JPC-3]	0.617	0.592	0.617	0.754	0.456	1.03	0.946	0.941	1.04	0.517	0.84	0.754	0.816	0.885	0.736	0.77	0.732	0.787
PC-14	0.735	0.647	0.643	0.818	0.254	0.974	0.954	0.909	1.05	0.632	0.18	0.227	0.292	0.305	0.667	0.681	0.623	0.677
RERF-LC-KJ	0.956	0.815	1.09	0.822	0.742	0.526	0.731	0.791	0.638	0.585	0.788	0.692	0.851	0.758	0.553	0.471	0.423	0.552
SK-LU-1	0.393	0.501	0.472	0.536	0.454	0.751	1.06	1.31	1.06	1.06	0.789	0.679	0.834	0.679	0.557	0.607	0.457	0.512
SW 1573		0.462	0.618	0.547	0.661	0.632	0.807	0.844	0.749	0.811	0.575	0.532	0.46	0.459	0.475	0.448	0.394	0.457
UMC-11	0.445	0.698	0.772	0.667	0.516	0.957	1.01	0.958	1.01	0.964	0.604	0.526	0.66	0.664	0.843	0.783	0.754	0.815
